Laboratory results as given in US11008301B2, “Piperidinone formyl peptide 2 receptor agonists” (BRISTOL-MYERS SQUIBB COMPANY, priority 2017, dated 2021).
Several values for one entry are separate records, joined by “and”; a condition that tells them apart may be missing. Identical values can stand only once.

Biological target: human FPR2 (Homo sapiens (Human), UniProt P25090)
Assay: FPR2 cyclic adenosine monophosphate (cAMP) assay
Format: cell-based
Conditions: CHO cells overexpressing human FPR2; cAMP assay; read-out: hFPR2 agonist activity EC50 (hFPR2 Assay)
Experimental: FPR2 and FPR1 Cyclic Adenosine Monophosphate (cAMP) Assays. A mixture of forskolin (5 μM final for FPR2 or 10 μM final for FPR1) and IBMX (200 μM final) were added to 384-well Proxiplates (Perkin-Elmer) pre-dotted with test compounds in DMSO (1% final) at final concentrations in the range of 1.7 nM to 100 μM. Chinese Hamster Ovary cells (CHO) overexpressing human FPR1 or human FPR2 receptors were cultured in F-12 (Ham's) medium supplemented with 10% qualified FBS, 250 μg/ml zeocin and 300 μg/ml hygromycin (Life Technologies). Reactions were initiated by adding 2,000 human FPR2 cells per well or 4,000 human FPR1 cells per well in Dulbecco's PBS (with calcium and magnesium) (Life Technologies) supplemented with 0.1% BSA (Perkin-Elmer). The reaction mixtures were incubated for 30 min at room temperature. The level of intracellular cAMP was determined using the HTRF HiRange cAMP assay reagent kit (Cisbio) according to manufacturer's instruction. Solutions of cryptate conjugated anti-cAMP and d2 flurorophore-labelled cAMP were made in a supplied lysis buffer separately. Upon completion of the reaction, the cells were lysed with equal volume of the d2-cAMP solution and anti-cAMP solution. After a 1-h room temperature incubation, time-resolved fluorescence intensity was measured using the Envision (Perkin-Elmer) at 400 nm excitation and dual emission at 590 nm and 665 nm. A calibration curve was constructed with an external cAMP standard at concentrations ranging from 1 μM to 0.1 pM by plotting the fluorescent intensity ratio from 665 nm emission to the intensity from the 590 nm emission against cAMP concentrations. The potency and activity of a compound to inhibit cAMP production was then determined by fitting to a 4-parametric logistic equation from a plot of cAMP level versus compound concentrations.

Chain of human FPR2 (P25090 whole entry): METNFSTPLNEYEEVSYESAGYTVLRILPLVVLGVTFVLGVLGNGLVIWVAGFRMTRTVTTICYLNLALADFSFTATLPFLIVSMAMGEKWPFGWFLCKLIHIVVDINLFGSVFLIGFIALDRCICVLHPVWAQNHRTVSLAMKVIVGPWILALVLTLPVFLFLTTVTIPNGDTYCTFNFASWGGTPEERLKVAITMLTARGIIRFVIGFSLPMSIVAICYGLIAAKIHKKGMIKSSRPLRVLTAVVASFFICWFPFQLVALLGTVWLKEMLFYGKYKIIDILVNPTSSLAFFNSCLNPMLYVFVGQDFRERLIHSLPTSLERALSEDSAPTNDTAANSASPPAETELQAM

Compound | EC50
O=C(Nc1ccc(C(F)(F)F)cc1)N[C@@H]1CCCN(c2ccc(N3CC[C@@H](O)C3)cc2)C1=O [Example 1, 1-(1-(4-((R)-3-Hydroxypyrrolidin-1-yl)phenyl)-2-oxopiperidin-3-yl)-3-(4-(trifluoromethyl)phenyl)urea] | ≤ 10 nM
O=C(Nc1ccc(C(F)(F)F)cc1)N[C@@H]1CCCN(c2ccc(N3CCCC3=O)cc2)C1=O [Example 2] | 10 to 100 nM
O=C(Nc1ccc(C(F)(F)F)cc1)N[C@@H]1CCCN(c2ccc(N3CC[C@H](O)C3)cc2)C1=O [Example 3] | 10 to 100 nM
O=C(Nc1ccc(C(F)(F)F)cc1)N[C@@H]1CCCN(c2ccc(N3C[C@H]4CC[C@@H](C3)O4)cc2)C1=O [Example 5] | ≤ 10 nM
O=C(Nc1ccc(Cl)nc1)N[C@@H]1CCCN(c2ccc(N3CC[C@@H](O)C3)cc2)C1=O [Example 6] | 10 to 100 nM
C[C@@H]1COCCN1c1ccc(N2CCC[C@@H](NC(=O)Nc3ccc(C(F)(F)F)nc3)C2=O)cc1 [Example 7] | 10 to 100 nM
C[C@H]1COCCN1c1ccc(N2CCC[C@@H](NC(=O)Nc3ccc(C(F)(F)F)nc3)C2=O)cc1 [Example 8] | 100 to 1000 nM
O=C(Nc1ccc(C(F)(F)F)cc1)N[C@@H]1CCCN(c2ccc(N3CC4(COC4)C3)cc2)C1=O [Example 10] | 10 to 100 nM
COCC1COCCN1c1ccc(N2CCC[C@@H](NC(=O)Nc3ccc(C(F)(F)F)cc3)C2=O)cc1 (some centres unmarked) [Example 13] | ≤ 10 nM
COCC1CCCCN1c1ccc(N2CCC[C@@H](NC(=O)Nc3ccc(C(F)(F)F)nc3)C2=O)cc1 (some centres unmarked) [Example 16] | 10 to 100 nM
COCC1COCCN1c1ccc(N2CCC[C@@H](NC(=O)Nc3ccc(C(F)(F)F)cc3)C2=O)cc1 (some centres unmarked) [Example 21] | ≤ 10 nM
COCC1COCCN1c1ccc(N2CCC[C@@H](NC(=O)Nc3ccc(C(F)(F)F)nc3)C2=O)cc1 (some centres unmarked) [Example 22] | 100 to 1000 nM
COC[C@@H]1CCCN1c1ccc(N2CCC[C@@H](NC(=O)Nc3ccc(C(F)(F)F)cn3)C2=O)cc1 [Example 24] | 100 to 1000 nM
COC[C@@H]1CCCN1c1ccc(N2CCC[C@@H](NC(=O)Nc3ccc(C(F)(F)F)nc3)C2=O)cc1 [Example 25] | 10 to 100 nM
COC[C@@H]1CCCN1c1ccc(N2CCC[C@@H](NC(=O)Nc3ccc(C(F)(F)F)cc3)C2=O)cc1 [Example 27] | 10 to 100 nM
O=C(Nc1ccc(C(F)(F)F)cn1)N[C@@H]1CCCN(c2ccc(N3CC[C@@H](O)C3)cc2)C1=O [Example 28] | 100 to 1000 nM
CC(=O)N1CCN(c2ccc(N3CCC[C@@H](NC(=O)Nc4ccc(C(F)(F)F)cc4)C3=O)cc2)CC1 [Example 29] | 100 to 1000 nM
COC1CCN(c2ccc(N3CCC[C@@H](NC(=O)Nc4ccc(C(F)(F)F)cc4)C3=O)cc2)CC1 [Example 30] | ≤ 10 nM
O=C(Nc1ccc(C(F)(F)F)cc1)N[C@@H]1CCCN(c2ccc(N3CCCC(O)C3)cc2)C1=O (some centres unmarked) [Example 31] | 10 to 100 nM
O=C(Nc1ccc(C(F)(F)F)cc1)N[C@H]1CCCN(c2ccc(N3CCCC(O)C3)cc2)C1=O (some centres unmarked) [Example 32] | 100 to 1000 nM
CC(C)N1CCN(c2ccc(N3CCC[C@@H](NC(=O)Nc4ccc(C(F)(F)F)cc4)C3=O)cc2)CC1 [Example 33] | 10 to 100 nM

Compound | EC50
C[C@@H]1COCCN1c1ccc(N2CCC[C@@H](NC(=O)Nc3ccc(C(F)(F)F)cc3)C2=O)cc1 [Example 35] | ≤ 10 nM
COc1ccc(NC(=O)N[C@@H]2CCCN(c3ccc(N4CCOC[C@H]4C)cc3)C2=O)cc1 [Example 36] | 10 to 100 nM
C[C@H]1COCCN1c1ccc(N2CCC[C@@H](NC(=O)Nc3ccc(C(F)(F)F)cc3)C2=O)cc1 [Example 37] | 10 to 100 nM
CC1CCCN(c2ccc(N3CCC[C@@H](NC(=O)Nc4ccc(C(F)(F)F)cc4)C3=O)cc2)C1 (some centres unmarked) [Example 38] | ≤ 10 nM
CC(C)[C@@H]1COCCN1c1ccc(N2CCC[C@@H](NC(=O)Nc3ccc(C(F)(F)F)cc3)C2=O)cc1 [Example 39] | ≤ 10 nM
CC1(C)CCN(c2ccc(N3CCC[C@@H](NC(=O)Nc4ccc(C(F)(F)F)cc4)C3=O)cc2)CC1 [Example 40] | 10 to 100 nM
CC1CCN(c2ccc(N3CCC[C@@H](NC(=O)Nc4ccc(C(F)(F)F)cc4)C3=O)cc2)CC1 [Example 41] | 10 to 100 nM
CCN1CCN(c2ccc(N3CCC[C@@H](NC(=O)Nc4ccc(C(F)(F)F)cc4)C3=O)cc2)CC1 [Example 42] | 10 to 100 nM
C[C@@H]1CN(c2ccc(N3CCC[C@@H](NC(=O)Nc4ccc(C(F)(F)F)cc4)C3=O)cc2)C[C@H](C)O1 [Example 43] | 10 to 100 nM
CN1CCN(c2ccc(N3CCC[C@@H](NC(=O)Nc4ccc(C(F)(F)F)cc4)C3=O)cc2)CC1 [Example 44] | 10 to 100 nM
O=C(Nc1ccc(C(F)(F)F)cc1)N[C@@H]1CCCN(c2ccc(N3CCOCC3)cc2)C1=O [Example 46] | ≤ 10 nM
O=C(Nc1ccc(C(F)(F)F)nc1)N[C@@H]1CCCN(c2ccc(N3C[C@H]4CC[C@@H](C3)O4)cc2)C1=O [Example 47] | 100 to 1000 nM
C[C@@H]1COCCN1c1ccc(N2CCC[C@@H](NC(=O)Nc3ccc(C(F)(F)F)cn3)C2=O)cc1 [Example 48] | 100 to 1000 nM
O=C(Nc1ccc(C(F)(F)F)cn1)N[C@@H]1CCCN(c2ccc(N3CCCCC3=O)cc2)C1=O [Example 49] | 100 to 1000 nM
O=C(Nc1ccc(C(F)(F)F)cn1)N[C@@H]1CCCN(c2ccc(N3CCCCC3=O)cc2F)C1=O [Example 51] | 100 to 1000 nM
O=C(Nc1ccc(C(F)(F)F)cc1)N[C@@H]1CCCN(c2ccc(N3CCCCC3=O)cc2F)C1=O [Example 52] | 10 to 100 nM
O=C(Nc1ccc(C(F)(F)F)cc1)N[C@@H]1CCCN(c2ccc(N3CCOCC3)cc2F)C1=O [Example 53] | 10 to 100 nM
O=C(Nc1ccc(C(F)(F)F)cc1)N[C@@H]1CCCN(c2ccc(N3CC[C@@H](O)C3)nc2)C1=O [Example 55] | 10 to 100 nM
O=C(Nc1ccc(C(F)(F)F)cc1)N[C@@H]1CCCN(c2ccc(N3CCCC(F)C3)nc2)C1=O (some centres unmarked) [Example 57] | 10 to 100 nM
COC1CCN(c2ccc(N3CCC[C@@H](NC(=O)Nc4ccc(C(F)(F)F)cc4)C3=O)cn2)CC1 [Example 58] | 10 to 100 nM
CC1CCN(c2ccc(N3CCC[C@@H](NC(=O)Nc4ccc(C(F)(F)F)cc4)C3=O)cn2)CC1 [Example 59] | 10 to 100 nM

Compound | EC50
O=C(Nc1ccc(C(F)(F)F)cc1)N[C@@H]1CCCN(c2ccc(N3CCCC(O)C3)nc2)C1=O (some centres unmarked) [Example 60] | 10 to 100 nM
O=C(Nc1ccc(C(F)(F)F)cc1)N[C@@H]1CCCN(c2ccc(N3CCN(CCO)CC3)nc2)C1=O [Example 61] | 10 to 100 nM
O=C(Nc1ccc(C(F)(F)F)nc1)N[C@@H]1CCCN(c2ccc(N3[C@@H]4CC[C@H]3COC4)nc2)C1=O [Example 62] | 100 to 1000 nM
COC[C@@H]1CCCN1c1ccc(N2CCC[C@@H](NC(=O)Nc3ccc(C(F)(F)F)cn3)C2=O)cn1 [Example 63] | 100 to 1000 nM
O=C(Nc1ccc(C(F)(F)F)cc1)N[C@@H]1CCCN(c2ccc(N3CCCC(CO)C3)nc2)C1=O (some centres unmarked) [Example 64] | 100 to 1000 nM
COCC1CCCN1c1ccc(N2CCC[C@@H](NC(=O)Nc3ccc(C(F)(F)F)cc3)C2=O)cc1 (some centres unmarked) [Example 66] | ≤ 10 nM
O=C(Nc1cnc(C(F)(F)F)cn1)N[C@@H]1CCCN(c2ccc(N3CCC(F)(F)C3)cc2)C1=O [Example 67] | ≤ 10 nM and 10 to 100 nM
O=C(Nc1ccc(C(F)(F)F)cc1)N[C@@H]1CCCN(c2ccc(N3CCC(F)(F)C3)cc2)C1=O [Example 68] | ≤ 10 nM
COCC1CCCCN1c1ccc(N2CCC[C@@H](NC(=O)Nc3cnc(C(F)(F)F)cn3)C2=O)c(F)c1 (some centres unmarked) [Example 71] | ≤ 10 nM
O=C(Nc1ccc(C(F)(F)F)cc1)N[C@@H]1CCCN(c2ccc(N3CCCC(C(F)(F)F)C3)cc2)C1=O (some centres unmarked) [Example 72] | ≤ 10 nM
O=C(Nc1ccc(C(F)(F)F)cc1)N[C@@H]1CCCN(c2ccc(N3CCC(CO)C3)cc2)C1=O (some centres unmarked) [Example 73] | ≤ 10 nM
O=C(Nc1ccc(C(F)(F)F)cc1)N[C@@H]1CCCN(c2ccc(N3CC(O)C(F)C3)cc2)C1=O (some centres unmarked) [Example 74] | ≤ 10 nM
CN(C)C1CCN(c2ccc(N3CCC[C@@H](NC(=O)Nc4ccc(Cl)cc4)C3=O)c(F)c2F)C1 (some centres unmarked) [Example 75] | ≤ 10 nM
COC1CCN(c2ccc(N3CCC[C@@H](NC(=O)Nc4ccc(Cl)cc4)C3=O)cc2)C1 (some centres unmarked) [Example 76] | ≤ 10 nM
O=C(Nc1ccc(Cl)cc1)N[C@@H]1CCCN(c2ccc(N3CCCC(CO)C3)cc2)C1=O (some centres unmarked) [Example 78] | ≤ 10 nM
CN(C)C1CN(c2ccc(N3CCC[C@@H](NC(=O)Nc4ccc(C(F)(F)F)cc4)C3=O)cc2)CC1O (some centres unmarked) [Example 79] | ≤ 10 nM
O=C(Nc1ccc(Cl)cc1F)N[C@@H]1CCCN(c2ccc(N3CCCCC3=O)c(F)c2F)C1=O [Example 80] | ≤ 10 nM
O=C(Nc1ccc(Cl)cc1F)N[C@@H]1CCCN(c2ccc(N3CC[C@@H](F)C3)cc2)C1=O [Example 82] | ≤ 10 nM
CN(C)C1CN(c2ccc(N3CCC[C@@H](NC(=O)Nc4ccc(C(F)(F)F)cc4)C3=O)cc2)CC1F (some centres unmarked) [Example 84] | ≤ 10 nM
CN(CC(F)(F)F)C1CCN(c2ccc(N3CCC[C@@H](NC(=O)Nc4ccc(Cl)cc4)C3=O)c(F)c2F)C1 (some centres unmarked) [Example 85] | ≤ 10 nM
